Assay results from patent publication US8338482B2, “Modulating notch1 signaling pathway for treating neuroendocrine tumors” (Wisconsin Alumni Research Foundation, priority 2007, dated 2012).

How the values were obtained:
[1] = system: H727 human lung carcinoid cancer cells; test: Western blot analysis of pulmonary carcinoid cells; assay type: cell-based
Notch1 = test: CBF1 binding site luciferase reporter assay; assay type: cell-based, human; conditions: GI carcinoid cells, VPA 48 hours
Description: Luciferase Reporter Assays GI carcinoid tumor cells were transiently transfected with luciferase constructs as previously described (Kunnimalaiyaan, M. et al., Conservation of the Notch1 signaling pathway in gastrointestinal carcinoid cells A J Physiol Gastrointest Liver Physiol 2005; 289:G636-642). Wild-type (4xwtCBF1Luc; 2 μg) or mutant (4xmutCBF1Luc; 2 μg) CBF1-luciferase reporter plasmids were co-transfected with CMV-β-gal (0.5 μg) (Hsieh J J et al., Truncated Mammalian Notch1 Activates CBF1/RBPJk-Repressed Genes by a Mechanism Resembling That of Epstein-Barr Virus EBNA2. Mol Cell Biol 1996; 16:952-959). In experiments with the γ-secretase inhibitor, N-[N-(3,5-difluorophenacetyl)-L-alanyl]-S-phenylglycine t-butyl ester (DAPT; EMD Biosciences, Darmstadt, Germany), to inhibit Notch1 cleavage and activation, cells were pretreated for 45 minutes with DAPT (50 μM) then treated with 4 mM VPA. […] Luciferase levels were measured using a Monolight 2010 Luminometer (Analytical Luminescence Laboratory, San Diego, Calif.). […]

BON GI carcinoid cells = test: Flow cytometry cell cycle analysis; assay type: cell-based, human; conditions: VPA
Description: Flow Cytometry GI carcinoid cells treated with or without VPA were labeled for 1 hour with 10 μM bromodeoxyuridine (Sigma-Aldrich) and counter-stained with 50 μg/ml propidium iodide and analyzed by two-dimensional flow cytometry (FACSCalibur flow cytometer; BD Biosciences) to detect both fluorescein and propidium iodide as previously described (Hirai, H. et al., Involvement of cell cycle progression in survival signaling through CD40 in the B-lymphocyte line WEHI-231. Cell Death Differ 2004; 11:261-269). Results were analyzed with FlowJo software (Tree Star, Ashland, Oreg.).

[2] = system: BON human GI carcinoid cancer cells; test: Western blot analysis of GI carcinoid cells; assay type: cell-based
Description: Cell Culture BON human GI carcinoid cancer cells, kindly provided by Drs. B. Mark Evers and Courtney M. Townsend, Jr.
Total protein concentrations were quantified with a bicinchoninic acid assay kit (Pierce Biotechnology, Rockford, Ill., USA). Denatured cellular extracts were resolved by SDS-PAGE, transferred to nitrocellulose membranes (Schleicher and Schuell, Keene, N.H., USA), blocked in milk, and incubated with appropriate antibodies. The antibody dilutions were: 1:1,000 for Notch1 (Santa Cruz Biotechnology, Santa Cruz, Calif., USA), mammalian achaete-scute homolog 1 (ASCL1; BD Biosciences, San Diego, Calif., USA), chromogranin A (Zymed Laboratories, San Francisco, Calif., USA), and cyclin D1 (Cell Signaling Technology, Danvers, Mass., USA), 1:2,000 for p21 (Cell Signaling Technology) and p27 (Santa Cruz Biotechnology), and 1:10,000 for glyceraldehyde-3-phosphate dehydrogenase (G3PDH; Trevigen, Gaithersburg, Md., USA). Horseradish peroxidase conjugated goat anti-rabbit or goat anti-mouse secondary antibodies (Pierce Biotechnology) were used depending on the source of the primary antibody. For visualization of the protein signal, Immunstar (Bio-Rad Laboratories, Hercules, Calif., USA) or SuperSignal West Femto (Pierce Biotechnology) kits were used per the manufacturer's instructions.
Cell Culture BON human gastrointestinal (GI) carcinoid tumor cells, kindly provided by Drs. B. Mark Evers and Courtney M. Townsend, Jr.
Total protein concentrations were quantified with a bicinchoninic acid assay kit (Pierce Biotechnology, Rockford, Ill.). Denatured cellular extracts were resolved by SDS-PAGE, transferred onto nitrocellulose membranes (Schleicher and Schuell, Keene, N H), blocked in milk, and incubated with appropriate antibodies. The antibody dilutions were: 1:1,000 for Notch1 (Santa Cruz Biotechnology, Santa Cruz, Calif.), mammalian achaete-scute homolog 1 (ASCL1; BD Biosciences, San Diego, Calif.), chromogranin A (Zymed Laboratories, San Francisco, Calif.), and cyclin D1 (Cell Signaling Technology, Danvers, Mass.), 1:2,000 for p21 (Cell Signaling Technology) and p27 (Santa Cruz Biotechnology), and 1:10,000 for glyceraldehyde-3-phosphate dehydrogenase (G3PDH; Trevigen, Gaithersburg, Md.). Horseradish peroxidase conjugated goat anti-rabbit or goat anti-mouse secondary antibodies (Pierce Biotechnology) were used depending on the source of the primary antibody. For visualization of the protein signal, Immunstar (Bio-Rad Laboratories, Hercules, Calif.) or SuperSignal West Femto (Pierce Biotechnology) kits were used per the manufacturer's instructions.

`CCCC(CCC)C(=O)O` [VPA, 2-propylpentanoic acid] was tested, and the ASCL1 protein ([1]; VPA) was “dose-dependent decrease”, the “full-length Notch1 and NICD” value ([1]; VPA 0-4 mM, 2 days) was “increase” and the ASCL1 protein ([1]; VPA 4 mM, 2 days) was “undetectable levels”. For the same molecule, the “protein levels of CgA” value ([1]; VPA, two days) was “decreased”, the “increase in CBF1 luciferase activity” value (Notch1) was 5 fold and the “cells in the S phase” value (BON GI carcinoid cells) was “decrease”. The “percentage of cells in the G1 phase” value (BON GI carcinoid cells) was “dose-dependent increase”, the ASCL1 protein ([2]; VPA) was “dose-dependent decrease” and the “full-length Notch1 and NICD” value ([2]; VPA 0-4 mM, 2 days) was “increase”. For the same molecule, the “protein levels of p21 and p27” value ([2]; VPA 1 mM) was “increase in protein levels”, the “cyclin D1 level” value ([2]; VPA 4 mM, 4 days) was “almost undetectable” and the “protein levels of CgA” value ([2]; VPA, two days) was “decreased”.
